In paper PMC11350758, “Development of Xanthoangelol-Derived Compounds with Membrane-Disrupting Effects against Gram-Positive Bacteria” (Antibiotics, 2024):
Values after ≈ are worked out from the molar mass of the structure shown. Read-outs that look alike come from different tables or passages of the source.

Tests used:
[1] = system: red blood cells; assay: Hemolysis assay; assay type: cell-based, Sheep; conditions: concentration required to lyse 50% of red blood cells; 37 °C, 1 h
Procedure: (§1) All target derivatives were assessed for their in vitro antibacterial activities using a broth microdilution assay to test their minimum inhibitory concentrations (MICs) against six Gram-positive strains (S. aureus ATCC31007, S. aureus ATCC25923, S. aureus ATCC43300, E. faecalis ATCC29212, B. subtilis ATCC9372, and S. epidermidis ATCC12228) and four Gram-negative strains (A. baumannii ATCC19606, K. pneumonia ATCC10031, E. coli ATCC25922, and P. aeruginosa ATCC27853). These compounds were also evaluated for their hemolytic activities and membrane selectivity by determining their HC50 (the concentration required to lyse 50% of red blood cells) and SI (HC50/MICs) values, respectively, and vancomycin was used as the positive drug.
To further detect the hemolytic toxicity and therapeutic potential of these derivatives, we proceeded to examine the hemolytic activities and membrane selectivity of these derivatives. The HC50 value was defined as the concentration needed for a compound to lyse 50% of red blood cells, and it is often used to evaluate the hemolytic toxicity to eukaryotic cells. […] The selectivity index (SI) was calculated by HC50/MICs of S. aureus ATCC43300 and was used to assess the potency and safety of the compounds. […] Thus, compound 9h was selected as a representative molecule for the in-depth in vitro and in vivo studies.
Sheep blood was used to isolate red blood cells (RBCs), which were then resuspended in 1× PBS (5%). The compounds were dissolved in PBS to give an initial concentration of 5.12 mg/mL, compound solution (100 μL) was added to the first well of a 96-well plate, two-fold serial dilutions of compounds were prepared in 96-well plates, and then 150 μL of 5% RBC suspension was added to each well. This was followed by incubation at 37 °C for 1 h. After incubation, the plate was centrifuged (3500 rpm, 5 min), and 100 μL of supernatant solution from each well was carefully pipetted into a new plate. The absorbance values were measured at 540 nm. Erythrocyte hemolysis rate = (Absorbancecompound – Absorbance negative control)/(Absorbance1% Triton X-100 − Absorbance negative control) × 100%. All biological experiments were repeated three times.

[2] = system: S. aureus ATCC4330; assay: microbe, parasite or virus in culture; assay type: cell-based; conditions: Staphylococcus aureus, read-out: MBC
Procedure: Due to the presence of various biological enzymes in plasma, natural AMPs are susceptible to enzymatic degradation upon entering the bloods, leading to a loss of their antimicrobial activity. To evaluate the plasma stability of active compound 9h, we conducted a stability assay by determining their MBC (minimum bactericidal concentration) values in plasma and different blood components. […] The observed initial increase in the MBC value, followed by remaining unchanged, could potentially be attributed to the initial binding of compound 9h with plasma proteins, causing a reduction in its activity. Once this binding became saturated, the bactericidal activity of the compound remained stable, further indicating the good stability of compound 9h in plasma.
MBCs of the compounds were tested. Furthermore, MBCs of compounds in 50% plasma, 50% serum, and 50% blood suspension were tested. The MBC value is defined as the concentration at which the colony count is less than 5 after 18 h of incubation at 37 °C. All biological experiments were repeated three times.

[3] = system: S. aureus ATCC43300; assay: ROS assay (DCFH-DA); assay type: cell-based; conditions: 16 μg/mL
Procedure: It is known that the disruption of bacterial cell membranes often causes the production of ROS in bacterial cells. The fluorescent probe DCFH-DA was used to monitor the level of intracellular ROS produced by S. aureus ATCC43300. DCFH-DA is initially non-fluorescent; however, it undergoes hydrolysis to DCFH upon entry into the cell. Subsequently, DCFH is converted to the fluorescent compound DCF when ROS are produced in the cells. […] The fluorescence intensity of 9h was about 8-fold higher than the PBS-treated group when the concentration of 9h increased 16 μg/mL.
Mid-log S. aureus ATCC43300 was collected and resuspended in PBS. Bacteria suspension (1.0 × 10^8 CFU/mL) was placed into a 96-well plate, and an equal volume of DCF-DA (10.0 μM) was mixed and incubated at 37 °C for 30 min. After incubation, the suspension was centrifuged (3500 rpm, 4 min), and the supernatant was removed and resuspended in PBS. […] The fluorescence intensity of each well was recorded by a microplate reader (Ex = 488 nm and Em = 530 nm). All biological experiments were repeated three times.

[4] = system: S. aureus ATCC43300 biofilm formation
Procedure: Bacterial biofilms created by the aggregation of bacteria is considered as one of the main reasons for the development of drug resistance. […] Subsequently, we further assessed the efficiency of 9h to eradicate the preformed biofilm. Matured S. aureus biofilm (grown for 24 h) was treated with compound 9h, and the rate of biofilm disruption was then assessed by the crystal violet staining assay.
Biofilm inhibition assay: S. aureus ATCC43300 was cultured (37 °C, 200 rpm) in MHB broth for 5 h and diluted to 1 × 10^6 CFU/mL. […] The planktonic supernatant cells were discarded and washed with PBS three times. Then, methanol (150 µL) was added to each well for 30 min. After discarding methanol, 0.1% crystal violet solution (150 µL) was added, and biofilms were stained for 15 min. Next, crystal violet solution was removed and washed with PBS three times. Finally, ethanol (150 µL) was pipetted into the wells, and the OD values were measured at 575 nm. The biofilm inhibition (%) = (ODcompound − ODblank)/(ODpositive control − ODblank) × 100%.

[5] = In vitro cytotoxicity evaluation; assay type: cell-based; conditions: human, LO2 cells
Procedure: A key component in the development of antimicrobial agents for clinical application is the assessment of their potential toxicity to mammalian cells. To assess the cytotoxic impact, compound 9h was chosen to undergo in vitro testing for its cytotoxic effects on LO2 cells.

[6] = system: Gram-positive strains tested; assay: MIC, summary over the Gram-positive strains tested; assay type: cell-based; conditions: read-out: MICs against the Gram-positive strains tested, range over the Gram-positive panel
Procedure: as §1
MICs of the derivatives were determined by the micro broth dilution method according to the American Clinical and Laboratory Standards Institute (CLSI) standards. Briefly, 2-fold serial dilutions of target compounds were prepared in 96-well plates containing TSB broth. An equal volume of bacterial suspension (10^6 CFU/mL) was then pipetted into each well, and the mixture was incubated at 37 °C for 24 h. […] All biological experiments were repeated three times.

`CC(=O)c1c(OCCCNCCCN2CCN(C)CC2)c2c(c3c1OC(C)(CCC=C(C)C)C=C3)OC(C)(CCC=C(C)C)C=C2` (stereo not drawn) [Compound 9h, 1-(2,8-Dimethyl-2,8-bis(4-methylpent-3-en-1-yl)-5-(3-((3-(4-methylpiperazin-1-yl)propyl)amino)propoxy)-2H,8H-pyrano [2,3-f]chromen-6-yl)ethan-1-one] gave an HC50 [1] of 98.0 µg/mL, an MBC ([2]; ATCC4330, dissolved in Mueller Hinton broth (MHB)) of 16 µg/mL (≈ 25.2 µM) and an MBC ([2]; ATCC4330, in 50% blood (Figure 3B)) of 32 µg/mL (≈ 50.5 µM). It also gave an MBC ([2]; ATCC4330, in 50% plasma (Figure 3B)) of 32 µg/mL (≈ 50.5 µM), an MBC ([2]; ATCC4330, in 50% serum (Figure 3B)) of 32 µg/mL (≈ 50.5 µM) and an MBC ([2]; ATCC4330, treatment with 50% plasma, unchanged after 3 and 6 h preincubation (Figure 3A)) of 32 µg/mL (≈ 50.5 µM). For the same compound, the “ROS fluorescence intensity vs PBS-treated group” value [3] was “about 8 fold”, the “inhibition of S. aureus biofilm formation” value ([4]; 1× MIC (2 μg/mL)) was 8.65% and the “inhibition of S. aureus biofilm formation” value ([4]; 2× MIC) was 10.87%. The IC50 [5] was 55 µg/mL (≈ 86.8 µM), the viability at 2 μg/mL ([5]; 2 μg/mL, read-out: Cell Viability (%)) was 88.8% and the viability at 4 μg/mL ([5]; 4 μg/mL, read-out: Cell Viability (%)) was 88.6%. For the same compound, the viability at 8 μg/mL ([5]; 8 μg/mL, read-out: Cell Viability (%)) was 82.6%, the viability at 16 μg/mL ([5]; 16 μg/mL, read-out: Cell Viability (%)) was 78.4% and the viability at 32 μg/mL ([5]; 32 μg/mL, read-out: Cell Viability (%)) was 71.4%. It also gave a viability at 64 μg/mL ([5]; 64 μg/mL, read-out: Cell Viability (%)) of 58.1%, a viability at 128 μg/mL ([5]; 128 μg/mL, read-out: Cell Viability (%)) of 19.7% and an MIC [6] of 0.5 to 8 µg/mL (≈ 0.789 to 12.6 µM).
